The values that follow come from ChEMBL document CHEMBL1201862, “PubChem BioAssay data set” (2004).

Each structure is given as a SMILES string.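 Values below derive from 48-hour exposures of cells grown in 96-well plates, with endpoints linearly interpolated between the two concentrations bracketing the appropriate inhibition level. At the GI50, growth is halved.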 Calls of active or inactive are those of the source. Cut-off read from the data, not from the text of the source: active = GI50 up to about 1.1 µM and inactive = higher.

Some test systems named below: NCI-H23; SK-MEL-28; SK-MEL-2; HCT-116; NCI-H460; HCT-15; OVCAR-5; HOP-62; OVCAR-4; MOLT-4; KM12; UACC-257; SN12C; Malme-3M; U-251; OVCAR-3; HL-60; RXF 393; SF-268; EKVX.
Holding throughout (test): inhibition of tumour cell growth, NCI panel, 48 h

Consider `O=c1ccn(COC(COCc2ccccc2)COCc2ccccc2)c(=O)[nH]1`, for which the GI50 in the test on NCI-H23 is > 100 µM (inactive); in the test on SK-MEL-28, > 100 µM (inactive); in the test with SK-MEL-2, > 100 µM (inactive); in the test with HCT-116, > 100 µM (inactive); with NCI-H460, > 100 µM (inactive); in the test on HCT-15 it was over 100 µM. For the same compound, the GI50 with OVCAR-5 was > 100 µM (inactive); with HOP-62 it was > 100 µM (inactive); in the test on OVCAR-4, > 100 µM (inactive); with MOLT-4 it was 24.2 µM (inactive); in the test on KM12, > 100 µM (inactive); in the test on UACC-257, > 100 µM (inactive). In addition, the GI50 in the test on SN12C was > 100 µM (inactive); in the test with Malme-3M, > 100 µM (inactive); in the test on U-251 it was > 100 µM (inactive); in the test on OVCAR-3, > 100 µM (inactive); in the test on HL-60, 85.7 µM (inactive); with RXF 393 it was > 100 µM (inactive).

`O=C(O)C1CCCCN1c1ccccc1[N+](=O)[O-]` (centres undefined): the GI50 in the test with NCI-H23 was > 100 µM (inactive); in the test with SK-MEL-2, > 100 µM (inactive); with HCT-116 it was > 100 µM (inactive); with NCI-H460 it was > 100 µM (inactive); with HCT-15 it was over 100 µM; in the test with OVCAR-5 it was > 100 µM (inactive). Further, the GI50 with HOP-62, with OVCAR-4, with MOLT-4, in the test with SF-268, with EKVX and in the test on UACC-257 was > 100 µM (inactive) each time. Besides, the GI50 in the test on SN12C, in the test on Malme-3M, with U-251, in the test on OVCAR-3, in the test on HL-60 and with RXF 393 was > 100 µM (inactive) each time.

Turning to `O=C(/C=N/c1ccccc1S)c1ccco1`, the GI50 in the test with NCI-H23 was 4.01 µM (inactive); in the test with SK-MEL-28 it was 15.8 µM (inactive); in the test with SK-MEL-2 it was 16.4 µM (inactive); with HCT-116 it was 3.15 µM (inactive); in the test with HCT-15, 7.66 µM; in the test with HOP-62, 3.66 µM (inactive). In addition, the GI50 in the test with OVCAR-4 is 13.4 µM (inactive); with MOLT-4, 5.32 µM (inactive); in the test on SF-268 it was 18.7 µM (inactive); in the test on EKVX, 10.7 µM (inactive); in the test on KM12 it was 16.3 µM (inactive); in the test with UACC-257, 17.7 µM (inactive). Further, the GI50 with SN12C is 8.09 µM (inactive); in the test on Malme-3M, 18.9 µM (inactive); in the test with U-251 it was 5.53 µM (inactive); with OVCAR-3, 17.1 µM (inactive); with HL-60 it was 4.17 µM (inactive); in the test with RXF 393, 15.4 µM (inactive).

Turning to `CCOC(=O)NC(Nc1ncccn1)(C(=O)OCC)C(F)(F)F` (centres undefined), the GI50 in the test with NCI-H23 is > 100 µM (inactive); in the test on SK-MEL-28, > 100 µM (inactive); with SK-MEL-2, > 100 µM (inactive); in the test with HCT-116, > 100 µM (inactive); in the test with NCI-H460, > 100 µM (inactive); in the test on HCT-15, over 100 µM. In addition, the GI50 in the test with OVCAR-5, in the test on OVCAR-4, in the test with MOLT-4, in the test with SF-268, in the test on EKVX and with KM12 was > 100 µM (inactive) each time. Besides, the GI50 in the test with UACC-257, with SN12C, with U-251, with OVCAR-3, in the test with HL-60 and in the test on RXF 393 was > 100 µM (inactive) throughout.

Regarding `CCC(C(=O)O)c1ccc(OC)cc1` (centres undefined), the GI50 in the test with NCI-H23, with SK-MEL-28, in the test on SK-MEL-2, in the test with HCT-116, in the test on NCI-H460 and in the test on OVCAR-5 was > 100 µM (inactive) throughout. Moreover, the GI50 in the test on HOP-62, with OVCAR-4, in the test on MOLT-4, in the test on SF-268, with EKVX and in the test on KM12 was > 100 µM (inactive) each time. Besides, the GI50 in the test on UACC-257, in the test with SN12C, with Malme-3M, in the test with U-251, in the test with OVCAR-3 and in the test with HL-60 was > 100 µM (inactive) in each case. Moreover, the GI50 in the test on RXF 393 is > 100 µM (inactive).

Take `O=C=C=P(c1ccccc1)(c1ccccc1)c1ccccc1`: the GI50 in the test on NCI-H23 was 31.3 µM (inactive); in the test with SK-MEL-28, > 100 µM (inactive); with SK-MEL-2, 49.5 µM (inactive); in the test with HCT-116, 34.4 µM (inactive); with NCI-H460, 86.9 µM (inactive); in the test with HCT-15, over 100 µM. In addition, the GI50 was 28.5 µM (inactive) in the test on OVCAR-5; 61.2 µM (inactive) in the test on OVCAR-4; 55.8 µM (inactive) in the test on MOLT-4; 69.2 µM (inactive) in the test with SF-268; 46.7 µM (inactive) with EKVX; 48.9 µM (inactive) with KM12. The GI50 in the test with UACC-257 is 27.8 µM (inactive); in the test with SN12C it was > 100 µM (inactive); with Malme-3M, 30.6 µM (inactive); in the test on U-251, 72.1 µM (inactive); with HL-60, 11.1 µM (inactive); in the test with RXF 393, 92.5 µM (inactive).

For the compound `O=c1[nH]c(-c2ccc(Cl)cc2)cc2ccsc12`, the GI50 is 4.92 µM (inactive) in the test with NCI-H23; 5.15 µM (inactive) in the test with SK-MEL-28; 3.21 µM (inactive) in the test with SK-MEL-2; 3.3 µM (inactive) in the test with HCT-116; 4.74 µM (inactive) in the test with NCI-H460; 2.26 µM in the test on HCT-15. Further, the GI50 with OVCAR-5 was 6.34 µM (inactive); in the test with HOP-62, 8.07 µM (inactive); in the test on OVCAR-4, 23.3 µM (inactive); with MOLT-4 it was 3.78 µM (inactive); with SF-268 it was 9.23 µM (inactive); in the test on EKVX, 8.38 µM (inactive). The GI50 in the test on KM12 was 3.21 µM (inactive); with UACC-257, 0.662 µM (active); in the test on SN12C, 5.5 µM (inactive); in the test with Malme-3M, 1.2 µM (inactive); in the test with U-251, 3.14 µM (inactive); in the test on OVCAR-3 it was 1.66 µM (inactive). Besides, the GI50 in the test on HL-60 is 2.94 µM (inactive); in the test with RXF 393 it was 12.2 µM (inactive).

For `COC(=O)C1C(C)N1C` (centres undefined), the GI50 with NCI-H23 was > 100 µM (inactive); in the test on SK-MEL-28 it was > 100 µM (inactive); in the test on NCI-H460 it was > 100 µM (inactive); with HCT-15, over 100 µM; with HOP-62, > 100 µM (inactive); in the test with OVCAR-4, > 100 µM (inactive). Also, the GI50 in the test with MOLT-4, with EKVX, with KM12, with UACC-257, in the test with SN12C and with U-251 was > 100 µM (inactive) each time. Also, the GI50 with OVCAR-3, in the test with HL-60 and in the test with RXF 393 was > 100 µM (inactive) each time.
